In publication PMC10619691, “Effect of cyclic substituents on the anti-cancer activity and DNA interaction of ruthenium(II) bis-phenanthroline dipyridoquinoline” (Frontiers in Molecular Biosciences, 2023):

What was measured:
[1] = partition coefficient (log P), shake-flask method; format: physicochemical; conditions: phosphate buffered saline (pH 7.4) / 1-octanol
From the text: The role of lipophilicity in the activity of ruthenium (II) polypyridyl complexes is one that has been extensively reported ([Notaro and Gasser, 2017]). […] Based on this, we carried out a partition coefficient (log P) test using a shake-flask method to determine whether the marginal structural differences between VNK-754, VNK-572, and POW-12A affect their lipophilicity and to examine whether such a difference in lipophilicity confers any advantage to their anti-cancer activity. The log P results, as presented in Table 2, clearly show VNK-572 (0.014) and POW-12A (0.077) to be more lipophilic than VNK-754 (−0.874). […] Thus, along with varied DNA intercalating properties, this explains, in part, why there are appreciable differences in the cytotoxic effects of VNK572 and POW12A compared to VNK-754, even though they are generally similar in structure. For example, VNK-572 with an additional benzene ring can penetrate the bi-lipid-layered cell membrane better and achieve higher cellular and nuclear concentrations than VNK-754, producing a greater anti-tumor effect.
To study the lipophilicity of our complexes, we used the shake-flask method at 25.0 °C ± 0.1°C in line with the previously reported protocol ([Dubey et al., 2017]). Equal volumes of the aqueous phase (phosphate buffered saline, pH 7.4) and the 1-octanol phase were pre-saturated with each other overnight. A known amount of the complexes (respectively) was added to the aqueous phase, ensuring our final concentration was within the range of UV spectroscopic analysis; then, an equal volume of the pre-saturated […] phase was added. Both phases were then mixed in a conical flask and left shaking on a thermostatic shaker at a speed of 100 rpm overnight at room temperature. […] Considering that lipophilic compounds will partition into the octanol phase, the concentration of the complexes left in the aqueous phase was analyzed, respectively, by UV spectroscopy; then, the Log P value was calculated: Logp = Log10 ([solute] un-ionized octanol/[solute] un-ionized water).

HeLa cells = assay: cellular localization by confocal fluorescence microscopy; format: cell-based, human; conditions: 50 μM, 2 h incubation, co-localization with DAPI
Protocol: This was further confirmed by the co-localization of these complexes with a nuclear counterstain (DAPI) (Figure 2).
Fluorescence microscopy was used to study cellular localization. HeLa cells were seeded on autoclaved coverslips in the 6-well plate and incubated at 37°C for 48 h, after which the culture media were replaced with media containing VNK-572 (50 μM) and VNK-754 (50 μM), respectively, and further incubation was performed for 2 h. Following this, the cells were fixed with Carnoy’s solution and washed twice with PBS thereafter. Finally, the HeLa cells were counterstained with DAPI, and the seeded coverslips were inverted and placed on slides for examination. A Leica confocal microscope was used for the observation of the samples using a magnification of ×63.

[2] = system: RF I φX174 supercoiled circular DNA; assay: supercoiled DNA unwinding by atomic force microscopy; format: binding; conditions: AFM; P/D = 14 for POW-12A and VNK-572, P/D = 5 for VNK-754
Protocol: FIGURE 7 AFM height images RF I φX174 on a magnesium-soaked mica surface over an area of 2 µm. Samples with the ruthenium complex had solution mixing ratios of P/D = 14 for POW-12A and VNK-572; and of P/D = 5 VNK-754.
Samples for atomic force microscopy (AFM) were prepared on mica crystals cut into squares of approximately 1 cm^2. These squares were stuck with double-sided tape to a 15-mm diameter metal disc. Before sample preparation, Cellotape was used to remove the top layer of the mica crystal, giving a freshly cleaved surface layer on which the sample is to be deposited. Mica was soaked in a 0.1 M solution of MgCl2 for 5 min and blown dry, and Mg^2+ was used to help DNA (negatively charged) adhere to the negatively charged surface of the mica. For solutions containing DNA and POW-12A or VNK-572, a P/D value of 14 was used. For the solution containing DNA and VNK-754, a P/D value of 5 was used. Then, 2 μL of the solution was pipetted onto the mica surface and left for 10 min until the solvent had evaporated, leaving the DNA adhered to the surface. To remove excess salt, each sample was washed three times with 10 µL nanopure water, drying with nitrogen after each wash. AFM was conducted using a Bruker Multi-mode 2 atomic force microscope operated with a NanoScope V controller. ScanAsyst-AIR AFM tips were purchased from Bruker. Scans were run in tapping mode using ScanAsyst, measuring height, peak force error, and phase. The spring constant was adjusted to the spring constant of the tip, which is 0.4 N m^−1 for ScanAsyst-AIR tips; feedback parameters were set automatically by ScanAsyst Auto. Scans were run over 2 μm^2 areas with 512 lines. Images were prepared using NanoScope analysis software. Raw data were processed using first-order flattening and third-order plane fitting. If the background required smoothening due to large molecules on the surface, first-order flattening with a threshold of Z < 0.05 nm was used to improve the appearance of the background. […]

CT-DNA = assay: viscometry of DNA with bound complex; format: binding, calf; conditions: 25°C
From the text: This reduction reflects increased flexibility of the DNA due to electrostatic and steric factors, which is consistent with the LD results for POW-12A but can also occur if the DNA becomes kinked or bent upon binding a small molecule.
An uncalibrated Cannon-Manning extra-low charge semi-micro viscometer (size 75) was used to measure the relative intrinsic viscosity of dilute DNA solutions, according to the manufacturer’s instructions (Cannon Instrument Company) and as described previously ([MoradpourHafshejani et al., 2013]). The viscometer was immersed in a water bath thermostated at 25°C. The DNA concentration and viscometer volume ([…]) were kept constant for a series of added dye concentrations. The flow time for water was ∼177 s, and that for DNA solutions was >245 s. Measurements were carried out in triplicate and provided standard deviations of <±1 s. The flow times are related to the relative intrinsic viscosity according to Eq. 1, where [η] is the intrinsic viscosity in the presence of dye and [η]0 is the intrinsic viscosity of free DNA. t0, td, and tx represent the flow times for buffer only, naked DNA, and dye-bound DNA, respectively. […] If the persistence length is reduced or the DNA is bent (dynamically or statically), the slope will be lowered. tx−tt/td−tt3=η/η03=L/L0=1+αr. (1)

Compound	LogP [1]	cellular localization (HeLa cells)	unwinding of supercoiled circular DNA [2]	effect on DNA viscosity / length (CT-DNA)
F[P-](F)(F)(F)(F)F.F[P-](F)(F)(F)(F)F.[Ru+2].c1cnc2c(c1)c1ncc3c(c1c1cccnc12)CCC3.c1cnc2c(c1)ccc1cccnc12.c1cnc2c(c1)ccc1cccnc12 [POW-12A]	0.077	penetrate the nucleus	unwound	reduces the viscosity of DNA
F[P-](F)(F)(F)(F)F.F[P-](F)(F)(F)(F)F.[Ru+2].c1cnc2c(c1)c1ncc3c(c1c1cccnc12)CCCC3.c1cnc2c(c1)ccc1cccnc12.c1cnc2c(c1)ccc1cccnc12 [VNK-572]	0.014	penetrate the nucleus	unwound	elongates DNA
